# Laboratory results: paper PMC8466300, “Investigating the Central Nervous System Disposition of Actinomycin D: Implementation and Evaluation of Cerebral Microdialysis and Brain Tissue Measurements Supported by UPLC-MS/MS Quantification” (Pharmaceutics, 2021)
# *1 amine or outer side, *2 acyl side, *3 side chain or, on linkers, in order; H or OH if unused. Where a SMILES comes first, the peptide text is derived from it. Bridges are numbered along the chain shown (N, C = ends). Roman numbers before positions name the chains, in order. [ ]: non-standard residue; d: D form. Actinocin(9to1) = Cc1c2oc3c(C)ccc(C(=O)[*:1])c3nc-2c(C(=O)[*:2])c(N)c1=O; NMeV = CN[C@H](C(=O)O)C(C)C; Sar = CNCC(=O)O
# Tests used:
# [1] = Protocol: (§1) To confirm the P-gp substrate characteristics of actinomycin D, we conducted growth inhibition and uptake assays in a cell line over-expressing human P-gp/ABCB1 (L-MDR1 cells) in comparison to the respective parental cell line (LLC-PK1). L-MDR1 cells were kindly provided by A. H. Schinkel (The Netherlands Cancer Institute, Division of Experimental Therapy, Amsterdam, The Netherlands). The cells were cultured under standard cell culture conditions with medium M199 supplemented with 10% FCS, 2 mM glutamine, 100 U/mL penicillin, and 100 µg/mL streptomycin sulfate. The culture medium for L-MDR1 was supplemented with 0.64 µM vincristine to maintain P-gp/ABCB1 expression. One day before using the cells in the assays, both cell lines were fed with vincristine-free culture medium.
# (§2) The assays were performed in quadruplicate, as described previously, using ten concentrations of actinomycin D from 0.0005–10 µM in octuplets.
# (§3) Calibration curves were determined with 1/x^2 weighted linear regression using peak area ratios of the analyte to IS. This calculation was performed using the software TargetLynx V4.2 (Waters, Milford, MA, USA). Plasma pharmacokinetics were determined with the software Kinetica (v 5.0; Thermo Fisher Scientific, Waltham, MA, USA). Standard calculations were performed using Microsoft Office Excel 2010 ([…]). Concentration–response curves and IC50 values were calculated by GraphPad Prism version 9.0.0 (GraphPad Software Inc., La Jolla, CA, USA) according to a sigmoid Emax model.
# [2] = tested on: L-MDR1 cells (over-expressing human P-gp/ABCB1); settings: ratio of IC50 in P-gp over-expressing versus parental cells
# Protocol: as §1, §2, §3
compound,measurement,setting,value
"Cc1c2oc3c(C)ccc(C(=O)N[C@@H]4C(=O)N[C@H](C(C)C)C(=O)N5CCC[C@H]5C(=O)N(C)CC(=O)N(C)[C@@H](C(C)C)C(=O)O[C@@H]4C)c3nc-2c(C(=O)N[C@@H]2C(=O)N[C@H](C(C)C)C(=O)N3CCC[C@H]3C(=O)N(C)CC(=O)N(C)[C@@H](C(C)C)C(=O)O[C@@H]2C)c(N)c1=O [actinomycin D, Actinomycin D] (I: T[dV]P[Sar][NMeV] / II: T[dV]P[Sar][NMeV]; ester I:1-I:C, II:1-II:C; linker I:N-II:N via Actinocin(9to1))",IC50,[1],2400 ± 600 nM
same,difference of IC50 L-MDR1 versus LLC-PK1,[2],> 100 fold
